{"source": "patent US8222273B2", "about": "“Polymorphic form of a [1,2,4]triazole[4,3-A] pyridine derivative inflammatory diseases” (Pfizer Limited, priority 2008, dated 2012)", "format_in_all_cases": "physicochemical", "key": {"[1]": {"assay": "Low energy screen (slurry of form B in solvents, PXRD analysis)", "conditions": "slurried for 2 weeks in various solvents (incl. dimethylacetamide, N-methyl-Pyrrolidine, pyridine) at 4° C., room temperature (~22° C.) and 40° C.; analysis after 2 weeks and 4 months", "method": "A low energy screen was carried using N-[3-tert-butyl-1-(3-chloro-4-hydroxyphenyl)-1H-pyrazol-5-yl]-N′-{2-[(3-{2-[(2-hydroxyethyl)sulfanyl]phenyl}[1,2,4]triazolo[4,3-a]pyridin-6-yl)sulfanyl]benzyl}urea form B to investigate whether it is the lowest energy form of the compound. Samples of form B were slurried for 2 weeks in various solvents at 4° C., room temperature (˜22° C.) and 40° C. Analysis of wet and dried slurries was carried out at after 2 weeks and 4 months using PXRD."}, "[2]": {"assay": "Hydrate screen (slurry of form B in aqueous pyridine)", "conditions": "slurried 2 weeks at 4° C., room temperature (~22° C.) and 40° C. in aqueous pyridine containing 50%, 75% and 90% water", "method": "A hydrate screen was conducted by slurrying samples of form B for 2 weeks at 4° C., room temperature (˜22° C.) and 40° C. in aqueous pyridine. The three solvent systems selected contained 50%, 75% and 90% water."}, "Hygroscopicity": {"assay": "Hygroscopicity"}, "[3]": {"assay": "Micronisation by jet milling"}, "[4]": {"assay": "Stability of blend with lactose monohydrate on storage", "conditions": "stored under aggressive conditions of heat and humidity"}}}
{"smiles": "CC(C)(C)c1cc(NC(=O)NCc2ccccc2Sc2ccc3nnc(-c4ccccc4SCCO)n3c2)n(-c2ccc(O)c(Cl)c2)n1", "note": "[form B, N-[3-tert-butyl-1-(3-chloro-4-hydroxyphenyl)-1H-pyrazol-5-yl]-N′-{2-[(3-{2-[(2-hydroxyethyl)sulfanyl]phenyl}[1,2,4]triazolo[4,3-a]pyridin-6-yl)sulfanyl]benzyl}urea]", "values": [{"measurement": "crystalline form after slurrying (PXRD of wet and dried slurries)", "setting": "[1]", "value": "remained as Form B"}, {"measurement": "change in crystalline form", "setting": "[2]", "value": "No change in crystalline form"}, {"measurement": "hydrated forms observed", "setting": "[2]", "value": "No hydrated forms were observed"}, {"measurement": "hygroscopicity", "setting": "Hygroscopicity", "value": "essentially non-hygroscopic"}, {"measurement": "change in crystalline form on micronisation", "setting": "[3]", "value": "without inducing any change in crystalline form"}, {"measurement": "stability when blended with lactose monohydrate", "setting": "[4]", "value": "good stability"}]}
